IC50 data for 13 molecules are collected here from patent US20210238192A1, “VASCULAR ADHESION PROTEIN-1 (VAP-1) MODULATORS AND THERAPEUTIC USES THEREOF” (Blade Therapeutics, Inc., priority 2018, published 2021).

Counter-ions that a name gives are not always drawn.

Holding throughout (assay type): biochemical
Test [1] has as its target T1, Human MAO-B (Homo sapiens, UniProt P27338).
T1 sequence (P27338 1-520): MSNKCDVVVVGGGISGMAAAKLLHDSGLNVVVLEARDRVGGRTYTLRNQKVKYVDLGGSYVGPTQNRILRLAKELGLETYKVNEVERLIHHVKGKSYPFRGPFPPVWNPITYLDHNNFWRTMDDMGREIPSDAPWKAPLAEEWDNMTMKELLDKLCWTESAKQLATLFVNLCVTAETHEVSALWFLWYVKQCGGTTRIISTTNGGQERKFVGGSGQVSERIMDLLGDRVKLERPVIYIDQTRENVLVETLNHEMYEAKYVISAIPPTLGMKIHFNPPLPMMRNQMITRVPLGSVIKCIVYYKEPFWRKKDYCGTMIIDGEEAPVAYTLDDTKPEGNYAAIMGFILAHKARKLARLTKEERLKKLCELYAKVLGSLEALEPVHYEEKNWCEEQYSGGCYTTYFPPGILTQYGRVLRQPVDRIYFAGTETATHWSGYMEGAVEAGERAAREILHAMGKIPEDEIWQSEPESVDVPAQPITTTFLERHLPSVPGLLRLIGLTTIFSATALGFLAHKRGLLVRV
Nature of the test: MAO-B inhibition (Amplex Red continuous fluorescence assay). The note with it: 30 min pre-incubation at room temp; substrate benzylamine; read-out: Human MAO-B IC50. As to the method: (§1) VAP-1, DAO, MAO-A, MAO-B, and HRP activity and inhibition thereof was assessed by means of a continuous fluorescence assay. The Amplex Red Hydrogen Peroxide/Peroxidase Assay (ThermoFisher) was optimized for detecting amine oxidase (AO) activity. In an enzyme-coupled reaction, the H2O2 generated by AO reacts 1:1 with Amplex Red reagent to produce fluorescent product resorufin.
(§2) Assays were typically setup in black 384-well plates using automated liquid handling as follows. VAP-1/MAO assay buffer contains […] sodium phosphate, pH 7.4; DAO assay buffer contains 50 mM HEPES, pH 7.5; HRP assay buffer contains 100 mM CHES, 1 mM MgCl2, 50 mM NaCl, 0.05% BSA, pH 9.0. Inhibitors were serially diluted in DMSO and used to setup 2× mixtures with AO in the aforementioned buffer. After 30 min pre-incubation at 37° C. (VAP-1, HRP) or room temp (DAO, MAO), the reaction was initiated by adding a 2× mix of Amplex Red, HRP (coupling enzyme), and substrate (benzylamine, histamine, tyramine, benzylamine, H2O2, for VAP-1, DAO, MAO-A, MAO-B, and HR, respectively) in the same buffer. Reaction progress curve data were typically collected for 5 min using excitation/emission wavelengths of 510 nm/565 nm on FLIPR-Tetra plate readers (Molecular Devices Inc). Reaction rates were calculated from progress curve slopes typically over 60-150 sec. Dose response curves (rate vs. log inhibitor concentration) were typically fit to a 4-parameter logistic function to extract IC50 values.

The target in test [2] is T2, Human MAO-A (Homo sapiens, UniProt P21397).
T2 sequence (P21397 1-527): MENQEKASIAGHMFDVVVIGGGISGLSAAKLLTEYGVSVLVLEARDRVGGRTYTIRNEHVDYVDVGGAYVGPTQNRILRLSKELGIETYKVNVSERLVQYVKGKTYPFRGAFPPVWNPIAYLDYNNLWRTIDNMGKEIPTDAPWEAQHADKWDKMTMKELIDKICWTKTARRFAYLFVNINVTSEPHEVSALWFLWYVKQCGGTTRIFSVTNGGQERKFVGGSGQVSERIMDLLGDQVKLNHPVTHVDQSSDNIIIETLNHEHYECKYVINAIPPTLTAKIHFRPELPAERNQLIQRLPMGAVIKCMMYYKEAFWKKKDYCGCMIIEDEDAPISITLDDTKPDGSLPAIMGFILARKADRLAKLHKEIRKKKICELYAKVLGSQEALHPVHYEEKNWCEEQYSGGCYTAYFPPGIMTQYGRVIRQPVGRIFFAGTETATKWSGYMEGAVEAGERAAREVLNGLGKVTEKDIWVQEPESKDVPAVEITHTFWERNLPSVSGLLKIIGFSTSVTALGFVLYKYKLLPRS
Nature of the test: MAO-A inhibition (Amplex Red continuous fluorescence assay). The note with it: 30 min pre-incubation at room temp; substrate tyramine; read-out: Human MAO-A IC50. As to the method: as §1, §2

In test [3] the target is T3, Human DAO (Homo sapiens, UniProt P19801).
T3 sequence (P19801 20-751): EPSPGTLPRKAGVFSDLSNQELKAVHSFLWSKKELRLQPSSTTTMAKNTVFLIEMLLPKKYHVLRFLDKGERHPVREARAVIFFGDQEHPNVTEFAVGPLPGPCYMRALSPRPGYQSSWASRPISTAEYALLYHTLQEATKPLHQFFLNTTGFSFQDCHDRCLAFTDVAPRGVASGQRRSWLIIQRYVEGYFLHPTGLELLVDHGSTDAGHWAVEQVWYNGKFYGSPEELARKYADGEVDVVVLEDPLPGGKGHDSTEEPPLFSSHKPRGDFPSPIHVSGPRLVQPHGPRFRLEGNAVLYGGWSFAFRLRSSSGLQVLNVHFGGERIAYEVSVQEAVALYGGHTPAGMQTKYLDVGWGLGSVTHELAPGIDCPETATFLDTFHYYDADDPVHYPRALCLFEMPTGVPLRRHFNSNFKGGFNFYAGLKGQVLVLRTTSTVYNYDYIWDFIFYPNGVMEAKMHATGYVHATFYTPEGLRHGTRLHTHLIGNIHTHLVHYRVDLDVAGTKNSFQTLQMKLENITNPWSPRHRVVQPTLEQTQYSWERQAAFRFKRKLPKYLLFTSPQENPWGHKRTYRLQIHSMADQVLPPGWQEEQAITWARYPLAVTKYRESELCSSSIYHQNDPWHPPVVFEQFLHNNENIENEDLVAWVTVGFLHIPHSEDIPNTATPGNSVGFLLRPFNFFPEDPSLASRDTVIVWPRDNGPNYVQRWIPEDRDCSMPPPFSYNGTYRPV
Nature of the test: DAO inhibition (Amplex Red continuous fluorescence assay). The note with it: 30 min pre-incubation at room temp; substrate histamine; read-out: Human DAO IC50. As to the method: as §1, §2

The target in test [4] is T4, Human VAP-1 (Homo sapiens, UniProt Q16853).
T4 sequence (Q16853 1-763): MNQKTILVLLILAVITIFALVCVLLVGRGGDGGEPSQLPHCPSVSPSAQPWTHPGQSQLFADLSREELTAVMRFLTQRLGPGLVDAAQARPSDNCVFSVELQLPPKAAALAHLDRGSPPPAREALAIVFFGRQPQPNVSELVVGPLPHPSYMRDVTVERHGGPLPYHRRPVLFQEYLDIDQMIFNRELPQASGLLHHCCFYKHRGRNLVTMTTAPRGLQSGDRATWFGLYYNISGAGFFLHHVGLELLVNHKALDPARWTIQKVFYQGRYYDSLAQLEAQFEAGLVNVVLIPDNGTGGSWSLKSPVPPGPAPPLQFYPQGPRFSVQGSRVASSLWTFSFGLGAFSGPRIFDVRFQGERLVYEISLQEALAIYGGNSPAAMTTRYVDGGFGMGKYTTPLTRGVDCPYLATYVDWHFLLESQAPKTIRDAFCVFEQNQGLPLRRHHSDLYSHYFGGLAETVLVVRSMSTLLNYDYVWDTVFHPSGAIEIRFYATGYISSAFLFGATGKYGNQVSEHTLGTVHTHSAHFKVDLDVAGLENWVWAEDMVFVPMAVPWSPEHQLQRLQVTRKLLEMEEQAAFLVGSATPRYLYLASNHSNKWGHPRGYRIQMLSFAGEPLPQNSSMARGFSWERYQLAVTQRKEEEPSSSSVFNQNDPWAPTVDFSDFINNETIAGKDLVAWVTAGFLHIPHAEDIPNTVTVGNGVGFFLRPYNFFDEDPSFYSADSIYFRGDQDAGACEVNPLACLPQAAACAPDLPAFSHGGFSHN
Nature of the test: VAP-1 inhibition assay (Amplex Red continuous fluorescence assay). Particulars: 30 min pre-incubation at 37° C.; substrate benzylamine; read-out: Human VAP-1 IC50. As to the method: as §1, §2

As a reminder, the IC50 is the concentration that inhibits the measured activity by half. Take `NCC(=CF)COc1ccc(-c2cnn[nH]2)cc1` [Compound 60]: the IC50 in test [1], in test [2], in test [3] and in test [4] was under 3 µM in each case.

In the case of `Cn1ccnc1-c1ccc(OC/C(=C\F)CN)cc1` [Compound 28, hydrochloride], the IC50 was under 3 µM in test [1], over 10 µM in test [2], under 3 µM in test [3] and under 3 µM in test [4].

Take `CCN(CC)C(=O)Nc1ccc(OC/C(=C/F)CN)cc1` [Compound 24, (E)-3-(4-((2-(aminomethyl)-3-fluoroalkyl)oxy)phenyl)-1,1-diethylurea hydrochloride]: the IC50 in test [1] is under 3 µM; in test [2] it was 3 to 10 µM; in test [3] it was over 10 µM; in test [4] it was under 3 µM.

With `NC/C(=C/F)CNC(=O)Nc1ccccc1` [Compound 72], the IC50 in test [1] was over 10 µM; in test [2], under 3 µM; in test [3] it was under 3 µM; in test [4] it was under 3 µM.

As to `NC/C(=C\F)CNC(=O)Nc1ccccc1` [Compound 71], the IC50 was over 10 µM in test [1], under 3 µM in test [2], 3 to 10 µM in test [3] and under 3 µM in test [4].

Take `CCC(=O)Nc1ccc(OC/C(=C/F)CN)cc1` [Compound 82, (E)-N-(4-((2-(aminomethyl)-3-fluoroalkyl)oxy)phenyl)propionamide]: the IC50 in test [1] is under 3 µM; in test [2], 3 to 10 µM; in test [3] it was 3 to 10 µM; in test [4], under 3 µM.

As for `CCNC(=O)Oc1ccc(OC/C(=C/F)CN)cc1` [Compound 55, (E)-4-((2-(aminomethyl)-3-fluoroalkyl)oxy)phenyl ethylcarbamate], the IC50 is under 3 µM in test [1], under 3 µM in test [2], over 10 µM in test [3] and under 3 µM in test [4].

As to `CCNC(=O)N(C)c1ccc(NC/C(=C/F)CN)cc1` [Compound 66, (E)-1-(4-((2-(aminomethyl)-3-fluoroalkyl)amino)phenyl)-3-ethyl-1-methylurea], the IC50 in test [1] was over 10 µM; in test [2], over 10 µM; in test [3] it was over 10 µM; in test [4] it was under 3 µM.

For the molecule `NC/C(=C\F)COc1ccc(-c2ncon2)cc1` [Compound 43, (E)-2-((4-(1,2,4-oxadiazol-3-yl)phenoxy)methyl)-3-fluoroprop-2-en-1-amine hydrochloride], the IC50 in test [1] was under 3 µM; in test [2] it was 3 to 10 µM; in test [3], under 3 µM; in test [4], under 3 µM.

On to `CCNC(=O)N(C)c1ccc(OC/C(=C/F)CN)cc1` [Compound 23, (E)-1-(4-((2-(aminomethyl)-3-fluoroalkyl)oxy)phenyl)-3-ethyl-1-methylurea hydrochloride], for which the IC50 in test [1] was 3 to 10 µM; in test [2], over 10 µM; in test [3] it was over 10 µM; in test [4], under 3 µM.

Take `NC/C(=C\F)COc1ccc(-c2ccccc2)cc1` [Compound 33, (E)-2-(([1,1′-biphenyl]-4-yloxy)methyl)-3-fluoroprop-2-en-1-amine hydrochloride]: the IC50 in test [1] is under 3 µM; in test [2], under 3 µM; in test [3] it was over 10 µM; in test [4], under 3 µM.

With `Cn1ccc(-c2ccc(OC/C(=C/F)CN)cc2)n1` [Compound 50, (E)-3-fluoro-2-((4-(1-methyl-1H-pyrazol-3-yl)phenoxy)methyl)prop-2-en-1-amine hydrochloride], the half-maximal inhibitory concentration (IC50) was under 3 µM in test [1], 3 to 10 µM in test [2], under 3 µM in test [3] and under 3 µM in test [4].

`NC/C(=C/F)COc1cccc2c1OCO2` [Compound 16, (Z)-2-((benzo[d][1,3]dioxol-4-yloxy)methyl)-3-fluoroprop-2-en-1-amine hydrochloride]: the IC50 in test [1], in test [2], in test [3] and in test [4] was under 3 µM throughout.
